Measured values from patent publication US20230270104A1, “USE OF ERYTHRITOL COMPOSITIONS AS MAMMAL-SAFE INSECTICIDES” (Drexel University, priority 2020, published 2023).
Entries after “also recorded” stand apart in the source; their conditions may differ. Where two headings read alike, the source gives them in different places.

Experiments:
fruit flies [1] = experiment: Comparison of erythritol with other human-safe sweet alcohols, fly longevity; format: in vivo, Drosophila melanogaster; settings: 17 days; for longevity, erythritol treatment versus the other treatments: FIG. 6
Procedure: An experiment was conducted to compare the effectiveness of erythritol with other human-safe sweet alcohols: D-mannitol, maltitol, sucrose, and xylitol. The concentration of all sweet alcohols were 1M.
Flies were raised for 17 days on standard fly food that contained 1 M concentrations of each sweetener treatment. Death of flies was recorded daily as before; each treatment was replicated on three vials of 10 flies each for 30 subjects/treatment. Differences in longevity were analyzed using the Kaplan-Meier survival analysis log rank test, making all pairwise comparisons among treatments.

Drosophila melanogaster [2] = experiment: Two-way food choice experiments, fly longevity; format: in vivo; settings: FIG. 5
Procedure: Foods containing 2 M erythritol, 1M erythritol and 1M sucrose were prepared for paired presentations in open choice tests. In each treatment one food type contained 0.05% brilliant blue FCF (Fisher 50-727-25). The blue dye allowed visual confirmation of feeding on the dyed food in the pair. The flies were presented with access to two food choices by using a modified cotton stopper with approximately a 1.5 cm diameter hole to connect each pair of food tubes.
The final choice treatment was between blue 2M erythritol food and non-blue 1M sucrose food (this treatment provides a comparison with the 1M erythritol/1M erythritol treatment as a test of dilution of toxicity by alternative food sources; blue guts would confirm erythritol was being consumed in the presence of sucrose). The number of flies with visible blue gut contents and mortality daily were recorded for 30 days.
(§1) Analyses were conducted with SPSS software v. 20 (IBM corporation 2011). Fly longevity data were analyzed using survival analysis with right-hand censoring of subjects that lived to the end of the study or were lost for reasons other than death. Test were run for differences in survival distributions [Pr(flies alive) versus insect age] using the log-rank (Mantel-Cox) test to make all pairwise comparisons among treatments within each experiment.

Drosophila melanogaster [3] = experiment: Longevity of adult flies raised on food containing sweeteners; format: in vivo; settings: repeat study, blue-dyed food with 0.0238 g/ml sweetener, FIG. 3
Procedure: All animals were cultured at 25° C., kept at 50-60% humidity, and were raised under a standard 12:12 light dark cycle. For each experimental treatment, n=30 flies were tested in groups of 10 per tube, and three tubes per treatment. Tubes were kept on their side to minimize subject becoming mired in the food. Foods were replaced twice a week. The total number of fruit flies used for these experiments was 780, with 300 used for two initial trials testing mortality among store-brand sweeteners, 210 used for repeating this with blue dye and pure erythritol, 120 for choice trials and 150 for concentration trials.
Standard Drosophila food for larval culturing consisted of water, cornmeal, yeast, molasses, and agar, as previously described (Chakraborty, et al., 2011, PLoS ONE 6: e20799). […] The addition of cornmeal and yeast assured the flies still received sufficient carbohydrates and protein in addition to any effects of the treatment additives.
Drosophila food was combined with an equal weight/volume (0.0238 g/ml) of one non-nutritive sweetener (TRUVIA, EQUAL, SPLENDA, SWEET'NLOW, or PUREVIA) or a control nutritive sweetener (controls: sucrose or corn syrup). Wild type (Canton S) larvae were initially raised on the standard food, and 0-12 hour old adult flies were transferred to foods containing one non-nutritive sweetener or a control treatment. […] The number of dead flies were scored daily.

Drosophila melanogaster [4] = experiment: Erythritol concentration trials, fly longevity; format: in vivo
Procedure: as §1, with “Standard fly foods were prepared as previously described, and then were treated with 2M, 1M, 0.5M and 0.1M concentrations of erythritol, using 0.5M sucrose as control. 0 to 24 hour-old Drosophila were placed on these foods and mortality was recorded daily for 35 days as above. Analyses” for “Analyses”

fruit flies [5] = settings: 0.5 M erythritol food, previous work; cited from earlier work
R. flavipes workers = format: in vivo, Reticulitermes flavipes
Procedure: Termites used in the survival and choice experiments were collected from three field colonies in Scotland Run Park (39.66° N, 75.05° W) in Clayton, N.J. between April and May 2019. After collection, colonies were maintained in plastic containers with soil and wood from the collection site as a substrate in laboratory conditions (20.8±0.9° C., 49±7% RH). Termites used in the consumption experiment were collected from a single field colony at Cobb's Creek Park (39.94° N, 75.24° W) in Philadelphia, Pa. during September of 2018. Workers were removed from the log and housed within 24 h of collection in 9 cm diameter petri dishes containing damp paper towel as a food source. Dishes were placed in an incubator at 26° C. (relative humidity varied between 40 and 60% across trials, but was consistent among all treatments within each trial). Each petri dish contained 10 workers. Termites used in all experiments measured 3-4 mm in length.
For the survival experiment, unbleached, brown paper towels (12 cm×24 cm, cat no. 01801, Kimberly-Clark Corporation, Neenah, Wis.), were completely submerged for 15 s in solution of distilled water, erythritol (100% purity, NOW foods, Bloomingdale, Ill.) of the below-specified concentrations, and 0.05% Brilliant Blue R-250 dye (cat. no 27816, Sigma-Aldrich, St. Louis, Mo.). The erythritol concentrations used were: 0 M (control), 0.25 M, 0.5 M, 0.75 M, 1.0 M, and 1.25 M. The treated paper towels were removed from solution and allowed to dry horizontally on racks before being cut into squares with an area of 144 cm^2. Papers were thereafter stored dry at room temperature in sealed containers.
Prior to the beginning of the experiment, termites were allowed to acclimate for 3 d to the petri dishes, in order to control for any death due to injury incurred during movement to the petri dishes; this was called the pretrial period. At the beginning of the pretrial period, termites used in the survival experiment were transferred from sections of natural nest kept in laboratory rearing boxes to 9 cm diameter plastic petri dishes lined with brown, unbleached paper towel (12 cm×24 cm) not treated with erythritol. The paper towel was rehydrated with 1 ml of distilled water. Each dish contained 10 workers. After the third (final) day of the pretrial period, dishes were checked for dead termites, assumed to be dead due to injury, and dead termites were replaced with live individuals from a petri dish of extra termites kept in similar conditions.
Following the pretrial period, the experiment was set up: pretrial paper towels were removed and replaced with treated paper towels of the correct erythritol treatment concentration; these were rehydrated with 750 μL of distilled water. Six treatment groups (0 M, 0.25 M, 0.5 M, 0.75 M, 1.0 M, 1.25 M erythritol) were used per colony (n=3 colonies), with three dishes per treatment, each containing 10 termite workers (n=30 workers/treatment/colony, n=540 total workers). Termite mortality was recorded every 24 h for 8 d.
Analyses were performed using SPSS v. 24 (IBM corp. 2016) and. Sigmaplot v.12.5 (Systat Software 2013) software. Differences in survival distributions across concentrations for all colonies, within the colonies, and across colonies were tested using pairwise log-rank Mantel Cox tests in SPSS, with subjects living to the end of the trial or lost to reasons other than death (e.g., escaped or injured) included in the analysis as right-censored values. Mean percent mortality was calculated for each concentration across colonies at 72 and 96 h and a three parameter, best-fit sigmoid curve was fitted to the data in Sigmaplot to assess LC at these time points.

[6] = 1 M sweetener in standard fly food

OC[C@@H](O)[C@@H](O)[C@H](O)[C@H](O)CO [D-mannitol]
longevity compared to sucrose (sugar) control (fruit flies [1]; [6]): did not differ from sugar control; also recorded: slightly but significantly reduced longevity; also recorded: almost insignificant insecticidal effect | longevity, erythritol treatment versus the other treatments (fruit flies [1]; [6]): significantly greater longevity than erythritol-fed flies

OC[C@@H](O)[C@@H](O)CO [erythritol, (2R,3S)-butane-1,2,3,4-tetraol]
longevity relative to sucrose:sucrose choice (Drosophila melanogaster [2]; choice between 1M sucrose and 1M erythritol): significant decrease in longevity; also recorded: significantly decreased longevity | longevity relative to sucrose:sucrose choice (Drosophila melanogaster [2]; choice between 1M sucrose and 2M erythritol): significant decrease in longevity; also recorded: significantly reduced | longevity compared to PUREVIA, EQUAL, sucrose and corn syrup (Drosophila melanogaster [3]): significant decrease in longevity | longevity compared to control food (Drosophila melanogaster [4]; 0.1M erythritol in food, observations terminated at 35 days): no significant difference in longevity | longevity with increasing erythritol concentration (Drosophila melanogaster [4]; 0.1M, 0.5M, 1.0M and 2.0M in food, 35 days, FIG. 4): significant decrease in longevity; also recorded: dose-dependent reduction in longevity | longevity compared to control food containing 0.5M sucrose (Drosophila melanogaster [4]; 0.5M erythritol in food): significant reductions in longevity | longevity compared to control food containing 0.5M sucrose (Drosophila melanogaster [4]; 1M erythritol in food): significant reductions in longevity | longevity compared to all other treatments (Drosophila melanogaster [4]; 2M erythritol in food): significant and severe effect on longevity | toxicity to fruit flies upon ingestion (fruit flies [1]; 1 M in standard fly food): toxic to fruit flies upon ingestion | mean longevity (fruit flies [1]; [6]): 4.7 ± 0.15 days | longevity, erythritol treatment versus the other treatments (fruit flies [1]; [6]): significantly lower; also recorded: significantly shorter longevity | time of exposure to reach 50% mortality (fruit flies [5]): 20 days | reduction in mean longevity (R. flavipes workers; 0.25 M to 0.5 M): 1.74 days | reduction in mean longevity (R. flavipes workers; 0.5-0.75 M): 0.23 days | reduction in mean longevity (R. flavipes workers; 0.75-1.0 M): 0.26 days | reduction in mean longevity (R. flavipes workers; 1.0-1.25 M): 0.14 days | concentration at which significant effects on longevity start (R. flavipes workers; R. flavipes workers, 8 d): 0.25 M | reduction in mean longevity (R. flavipes workers; concentration increased from 0 M to 0.25 M, FIG. 10): 3.77 days | time of exposure to reach 50% mortality (R. flavipes workers; termites, 0.5 M erythritol filter papers): ≤ 2 days

OC[C@@H](O)[C@@H](O[C@H]1O[C@H](CO)[C@@H](O)[C@H](O)[C@H]1O)[C@H](O)[C@@H](O)CO [maltitol]
longevity compared to sucrose (sugar) control (fruit flies [1]; [6]): did not differ from sugar control; also recorded: did not differ from the control; also recorded: not effective at reducing fly longevity | longevity, erythritol treatment versus the other treatments (fruit flies [1]; [6]): significantly greater longevity than erythritol-fed flies

OC[C@H]1O[C@@](CO)(O[C@H]2O[C@H](CO)[C@@H](O)[C@H](O)[C@H]2O)[C@@H](O)[C@@H]1O [sucrose]
longevity, erythritol treatment versus the other treatments (fruit flies [1]; [6]): significantly greater longevity than erythritol-fed flies

OC[C@@H](O)[C@H](O)[C@@H](O)CO [xylitol]
longevity compared to sucrose (sugar) control (fruit flies [1]; [6]): did not differ from sugar control; also recorded: did not differ from the control; also recorded: not effective at reducing fly longevity | longevity, erythritol treatment versus the other treatments (fruit flies [1]; [6]): significantly greater longevity than erythritol-fed flies
